Laboratory results from PubChem BioAssay (NCI).
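Growth conditions: 96-well plates. Treatment: test compound, 48 hours, 5 concentrations. Analysis: linear interpolation between bracketing concentrations; unreached endpoints set to highest concentration. TGI is the concentration that stops growth completely.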

Experiments:
Test in all cases: growth of human tumour cells (NCI), 48 h
T-47D breast = test system: T-47D breast
SK-MEL-2 melanoma = test system: SK-MEL-2 melanoma
UO-31 renal = test system: UO-31 renal
OVCAR-8 ovarian = test system: OVCAR-8 ovarian
CCRF-CEM leukemia = test system: CCRF-CEM leukemia
DU-145 prostate = test system: DU-145 prostate
K-562 leukemia = test system: K-562 leukemia
UACC-62 melanoma = test system: UACC-62 melanoma
ACHN renal = test system: ACHN renal
SF-268 CNS = test system: SF-268 CNS
SF-539 CNS = test system: SF-539 CNS
PC-3 prostate = test system: PC-3 prostate
SF-295 CNS = test system: SF-295 CNS
NCI-H23 lung = test system: NCI-H23 lung
786-0 renal = test system: 786-0 renal
HOP-62 NSCLC = test system: HOP-62 NSCLC
HCT-116 colon = test system: HCT-116 colon
SNB-75 CNS = test system: SNB-75 CNS
TK-10 renal = test system: TK-10 renal
SK-MEL-28 melanoma = test system: SK-MEL-28 melanoma
IGROV1 ovarian = test system: IGROV1 ovarian
COLO 205 colon = test system: COLO 205 colon
MDA-N = test system: MDA-N
U251 CNS = test system: U251 CNS
SK-OV-3 ovarian = test system: SK-OV-3 ovarian
HL-60(TB) leukemia = test system: HL-60(TB) leukemia
BT-549 breast = test system: BT-549 breast
HS 578T breast = test system: HS 578T breast
SR leukemia = test system: SR leukemia
SN12C renal = test system: SN12C renal
HT29 colon = test system: HT29 colon
CAKI-1 renal = test system: CAKI-1 renal
M14 melanoma = test system: M14 melanoma
HOP-92 NSCLC = test system: HOP-92 NSCLC
RPMI-8226 leukemia = test system: RPMI-8226 leukemia
EKVX NSCLC = test system: EKVX NSCLC
A498 renal = test system: A498 renal
OVCAR-3 ovarian = test system: OVCAR-3 ovarian
NCI-H226 lung = test system: NCI-H226 lung
LOX IMVI melanoma = test system: LOX IMVI melanoma
A549 NSCLC = test system: A549 NSCLC
MDA-MB-435 = test system: MDA-MB-435
NCI-H522 lung = test system: NCI-H522 lung
SNB-19 CNS = test system: SNB-19 CNS
SK-MEL-5 melanoma = test system: SK-MEL-5 melanoma
MOLT-4 leukemia = test system: MOLT-4 leukemia
MALME-3M melanoma = test system: MALME-3M melanoma
KM12 colon = test system: KM12 colon
OVCAR-4 ovarian = test system: OVCAR-4 ovarian
OVCAR-5 ovarian = test system: OVCAR-5 ovarian
MDA-MB-231 breast = test system: MDA-MB-231 breast
HCC-2998 colon = test system: HCC-2998 colon
HCT-15 colon = test system: HCT-15 colon
SW-620 colon = test system: SW-620 colon
NCI/ADR-RES ovarian = test system: NCI/ADR-RES ovarian
NCI-H460 lung = test system: NCI-H460 lung
MCF7 breast = test system: MCF7 breast

Structure (SMILES): COc1ccc(NC(=S)N/N=C/c2cccc(C)n2)cc1
- TGI (T-47D breast): > 100 µM
- TGI (SK-MEL-2 melanoma): > 100 µM
- TGI (UO-31 renal): 18 µM
- TGI (OVCAR-8 ovarian): > 35.4 µM
- TGI (CCRF-CEM leukemia): > 54 µM
- TGI (DU-145 prostate): > 67.1 µM
- TGI (K-562 leukemia): > 100 µM
- TGI (UACC-62 melanoma): 10.7 µM
- TGI (ACHN renal): 19.5 µM
- TGI (SF-268 CNS): > 66.9 µM
- TGI (SF-539 CNS): 34.2 µM
- TGI (PC-3 prostate): > 100 µM
- TGI (SF-295 CNS): 40.3 µM
- TGI (NCI-H23 lung): > 100 µM
- TGI (786-0 renal): > 65 µM
- TGI (HOP-62 NSCLC): 38.4 µM
- TGI (HCT-116 colon): > 100 µM
- TGI (SNB-75 CNS): 81.8 µM
- TGI (TK-10 renal): > 100 µM
- TGI (SK-MEL-28 melanoma): > 100 µM
- TGI (IGROV1 ovarian): 24.1 µM
- TGI (COLO 205 colon): > 39.6 µM
- TGI (MDA-N): > 100 µM
- TGI (U251 CNS): 24.6 µM
- TGI (SK-OV-3 ovarian): 46.2 µM
- TGI (HL-60(TB) leukemia): 6.06 µM
- TGI (BT-549 breast): > 71 µM
- TGI (HS 578T breast): > 100 µM
- TGI (SR leukemia): > 37.5 µM
- TGI (SN12C renal): > 100 µM
- TGI (HT29 colon): 14.9 µM
- TGI (CAKI-1 renal): > 79 µM
- TGI (M14 melanoma): 11.2 µM
- TGI (HOP-92 NSCLC): > 85.5 µM
- TGI (RPMI-8226 leukemia): 62.1 µM
- TGI (EKVX NSCLC): > 100 µM
- TGI (A498 renal): 90 µM
- TGI (OVCAR-3 ovarian): > 100 µM
- TGI (NCI-H226 lung): 53.8 µM
- TGI (LOX IMVI melanoma): 33.2 µM
- TGI (A549 NSCLC): > 100 µM
- TGI (MDA-MB-435): > 100 µM
- TGI (NCI-H522 lung): 5.73 µM
- TGI (SNB-19 CNS): > 100 µM
- TGI (SK-MEL-5 melanoma): > 36.5 µM
- TGI (MOLT-4 leukemia): > 29.3 µM
- TGI (MALME-3M melanoma): > 100 µM
- TGI (KM12 colon): > 100 µM
- TGI (OVCAR-4 ovarian): > 100 µM
- TGI (OVCAR-5 ovarian): > 100 µM
- TGI (MDA-MB-231 breast): > 100 µM
- TGI (HCC-2998 colon): > 100 µM
- TGI (HCT-15 colon): > 100 µM
- TGI (SW-620 colon): > 100 µM
- TGI (NCI/ADR-RES ovarian): > 26.6 µM
- TGI (NCI-H460 lung): > 42.9 µM
- TGI (MCF7 breast): > 100 µM
